According to patent publication US11951094B2, “TLR2 modulator compounds, pharmaceutical compositions and uses thereof” (Axial Therapeutics, Inc., priority 2020, dated 2024):

Biological target: TLR2 (Homo sapiens, UniProt O60603)
Test: TLR2 agonist screening assay, HEK-Blue TLR2 reporter cell line (NF-kB-driven SEAP, absorbance at 600 nm)
Type: cell-based
Design: host or cells: HEK-293 (HEK-Blue TLR2 reporter cell line)
Conditions: HEK-Blue TLR2 reporter cells, agonist mode
Excerpt: TLRs are a class of cell-surface receptors expressed on many different cell types that recognize conserved structural motifs present on pathogen-derived molecules. TLR2 recognizes bacteria-derived lipopeptides. […] Provided herein is an assay to identify and characterize the binding affinities of novel TLR2 agonists.
The in vitro TLR2 assay consists of a cell line that responds to TLR2 engagement by producing a factor that elicits a color change in the culture media and can be readily measured by various colorimetric detection methods. This assay enables the identification of existing and novel compounds that engage TLR2 and, by virtue of compound dilution, to approximate the binding affinity of these compounds for eliciting a TLR2 signal.
The TLR2 screening assay was developed from the HEK-Blue TLR2 reporter cell line that is commercially available from Invivogen (San Diego, CA). The reporter cell line consists of HEK-293 embryonic kidney cells that have been engineered to express TLR2 and with an NF-kB promoter driving expression of Secreted Alkaline Phosphatase (SEAP). Upon engagement of TLR2, downstream signaling results in activation of NF-kB pathway activation and secretion of SEAR In the presence of the detection reagent in the tissue culture media, SEAP mediates a color change from clear to indigo that is readily assessed by measuring absorbance at 600 nm.
HEK-Blue TLR2 reporter cells are cultured according to manufacturer's specifications until a confluence of 70-90%, at which point the cells are trypsinized, counted, and plated into 96-well plates at approximately 40,000 cells per well. Cells are cultured overnight and the TLR2 assay is performed 16-24 hours post-plating into 96 well plates.
Compounds are diluted from stocks dissolved in DMSO and a 1% DMSO final concentration is maintained in all testing wells.
The assay consists of removing the cell culture media after cells have been cultured overnight and replacing the media with HEK-Blue Detection media with TLR2 agonists at indicated dilution schemes. The Detection media contains a chemical substrate that turns from clear to indigo when acted upon by SEAP. The HEK-Blue cells are then cultured overnight in Detection media with diluted compounds. After overnight culture with agonists, each well of the plate is assayed in a plate reader at 600 nanometer absorbance.
• (1) HEK-Blue TLR2 cells are diluted in complete DME culture medium and plated into 96-well plates at 40,000 cells per well and cultured overnight. • (2) After 16-24 hours in culture, the media is removed and replaced with 200 microliters per well of HEK-Blue Detection media. • (3) TLR2 agonists are diluted 100-fold from DMSO stocks into each well, yielding a final DMSO concentration of 1% in all wells. • (3) Treated cells are cultured overnight and the following day are assayed in plate reader for Absorbance at 600 nanometer.
Following assay measurements utilizing either HEK-Blue detection or cytokine release, all data is analyzed with the GraphPad Prism8 statistical package to determine EC50, binding and activity metrics for the TLR2 modulators.
Data is generated using protocol described in Example 44.

Sequence of TLR2 (O60603 21-784): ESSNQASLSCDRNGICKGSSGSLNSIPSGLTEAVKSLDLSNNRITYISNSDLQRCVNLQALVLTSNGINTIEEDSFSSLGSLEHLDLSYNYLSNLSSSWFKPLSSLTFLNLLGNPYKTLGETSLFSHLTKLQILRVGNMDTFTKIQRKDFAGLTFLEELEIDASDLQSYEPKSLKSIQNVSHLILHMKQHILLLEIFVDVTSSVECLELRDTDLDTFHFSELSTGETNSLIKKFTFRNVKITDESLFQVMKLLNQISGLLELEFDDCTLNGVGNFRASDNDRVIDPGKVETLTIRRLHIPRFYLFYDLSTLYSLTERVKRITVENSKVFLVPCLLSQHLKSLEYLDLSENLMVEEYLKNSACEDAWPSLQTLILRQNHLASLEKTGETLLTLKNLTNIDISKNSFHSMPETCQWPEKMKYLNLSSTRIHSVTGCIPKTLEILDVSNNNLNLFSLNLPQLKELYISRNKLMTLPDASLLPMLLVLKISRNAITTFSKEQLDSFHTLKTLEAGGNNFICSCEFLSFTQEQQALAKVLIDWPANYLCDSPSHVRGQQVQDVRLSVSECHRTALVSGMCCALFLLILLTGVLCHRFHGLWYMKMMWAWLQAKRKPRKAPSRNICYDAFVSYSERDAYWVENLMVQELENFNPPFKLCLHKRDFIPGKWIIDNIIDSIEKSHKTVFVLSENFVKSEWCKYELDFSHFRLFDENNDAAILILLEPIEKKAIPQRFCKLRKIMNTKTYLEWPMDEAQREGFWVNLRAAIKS

| Structure (SMILES) | EC50 (average of all runs (Table 4)) [µM] | EC50 (average of all runs (Table 3)) [µM] |
| --- | --- | --- |
| CCCCCCCCCCCCCCNC(=O)[C@@H]1CN(C(=O)c2ccc(C(=O)N3C[C@@H](C(=O)N[C@H]4C[C@@H]4c4ccccc4)[C@H](C(=O)N[C@H]4C[C@@H]4c4ccccc4)C3)cc2)C[C@H]1N(C)C [Compound 091, (3S,4S)-1-(4-((3S,4R)-3-(dimethylamino)-4-(tetradecylcarbamoyl)pyrrolidine-1-carbonyl)benzoyl)-N3,N4-bis((1S,2R)-2-phenylcyclopropyl)pyrrolidine-3,4-dicarboxamide] | > 1 | – |
| CCCCCCNC(=O)[C@@H]1C[C@H](C(=O)NCCCCCC)CN(C(=O)c2ccc(C(=O)N3C[C@@H](C(=O)N[C@H]4C[C@@H]4c4ccccc4)[C@H](C(=O)N[C@H]4C[C@@H]4c4ccccc4)C3)cc2)C1 (relative stereo) [Compound 038, (3R*,5S*)-1-(4-((3S,4S)-3,4-bis(((1S,2R)-2-phenylcyclopropyl)carbamoyl)pyrrolidine-1-carbonyl)benzoyl)-N3,N5-dihexylpiperidine-3,5-dicarboxamide] | – | 0.351 to 1 |
| CCCCCCCCCCCCCNC(=O)N[C@H]1CN(c2ncc(-c3ccc(C(=O)N4C[C@@H](C(=O)N[C@H]5C[C@@H]5c5ccccc5)[C@H](C(=O)N[C@H]5C[C@@H]5c5ccccc5)C4)cc3)o2)C[C@@H]1OC [Compound 234, (3S,4S)-1-(4-(2-((3S,4S)-3-methoxy-4-(3-tridecylureido)pyrrolidin-1-yl)oxazol-5-yl)benzoyl)-N3,N4-bis((1S,2R)-2-phenylcyclopropyl)pyrrolidine-3,4-dicarboxamide] | > 1 | – |

Now from value to compound:

| EC50 (average of all runs (Table 4)) [µM] | EC50 (average of all runs (Table 3)) [µM] | Structure (SMILES) |
| --- | --- | --- |
| 0.0001 to 0.05 | – | CCCCCCCCCC(=O)N[C@@H](COC(=O)Nc1ccc(C(=O)N2C[C@@H](C(=O)N[C@H]3C[C@@H]3c3ccccc3)[C@H](C(=O)N[C@H]3C[C@@H]3c3ccccc3)C2)cc1)C(=O)NCCCCCC [Compound 239, (S)-2-decanamido-3-(hexylamino)-3-oxopropyl (4-((3S,4S)-3,4-bis(((1S,2R)-2-phenylcyclopropyl)carbamoyl)pyrrolidine-1-carbonyl)phenyl)carbamate] |
| 0.051 to 0.35 | – | CCCCCCCCCCCCCCNC(=O)[C@@H]1CN(Cc2ccc(C(=O)N3C[C@@H](C(=O)N[C@H]4C[C@@H]4c4ccccc4)[C@H](C(=O)N[C@H]4C[C@@H]4c4ccccc4)C3)cc2)C(=O)CN1C [Compound 093, (3S,4S)-1-(4-(((S)-4-methyl-2-oxo-5-(tetradecylcarbamoyl)piperazin-1-yl)methyl)benzoyl)-N3,N4-bis((1S,2R)-2-phenylcyclopropyl)pyrrolidine-3,4-dicarboxamide] |
| 0.351 to 1 | – | CCCCCCCC(=O)N1CCN(Cc2ccc(C(=O)N3C[C@@H](C(=O)N[C@H]4C[C@@H]4c4ccccc4)[C@H](C(=O)N[C@H]4C[C@@H]4c4ccccc4)C3)cc2)C[C@@H]1C(=O)NCCCCCC [Compound 121, (3S,4S)-1-(4-(((R)-3-(hexylcarbamoyl)-4-octanoylpiperazin-1-yl)methyl)benzoyl)-N3,N4-bis((1S,2R)-2-phenylcyclopropyl)pyrrolidine-3,4-dicarboxamide] |
| 0.351 to 1 | – | CCCCCCCCCCCCCCC(=O)N[C@@H]1CN(C(=O)c2ccc(C(=O)N3C[C@@H](C(=O)N[C@H]4C[C@@H]4c4ccccc4)[C@H](C(=O)N[C@H]4C[C@@H]4c4ccccc4)C3)cc2)C[C@H]1OC [Compound 154, (3S,4S)-1-(4-((3R,4R)-3-methoxy-4-pentadecanamidopyrrolidine-1-carbonyl)benzoyl)-N3,N4-bis((1S,2R)-2-phenylcyclopropyl) pyrrolidine-3,4-dicarboxamide] |
| 0.351 to 1 | – | CCCCCCCCCNC(=O)[C@@H]1CN(C(=O)c2ccc(C(=O)N3C[C@@H](C(=O)N[C@H]4C[C@@H]4c4ccccc4)[C@H](C(=O)N[C@H]4C[C@@H]4c4ccccc4)C3)cc2)CCN1C(C)=O [Compound 257, (3S,4S)-1-(4-((S)-4-acetyl-3-(nonylcarbamoyl)piperazine-1-carbonyl)benzoyl)-N3,N4-bis((1S,2R)-2-phenylcyclopropyl)pyrrolidine-3,4-dicarboxamide] |
